This passage reports IC50 and viability, T/C results from PubChem BioAssay AID2060893 (Molecular Pharmacology Branch, DTP, NCI, 2025).

For this test, the system named is K86415-001-R-J1-PDC complex spheroids, viability. The experiment in a line: Anticancer human tumor K86415-001-R-J1-PDC patient-derived lung adenocarcinoma cell line growth inhibition [RAS]. The settings on record: for viability, T/C: stronger effect = lower value. The method, boiled down: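 Multi-cell-type spheroids: tumor cells plus HUVEC endothelial cells and mesenchymal stem cells. RAS-pathway inhibitors were combined with targeted agents, each dosed in half-log steps down from clinical Cmax, or from 10 microM when Cmax was unknown.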

[1] abbreviates: curve of first compound, second compound 0.000949 µM.
Where [2] appears, read: curve of first compound, second compound 0.003 µM.
Where [3] appears, read: curve of first compound, second compound 0.00949 µM.
Where [4] appears, read: curve of first compound, second compound 0.03 µM.
Setting [5] is: curve of first compound, second compound 0.0949 µM.
[6] abbreviates: curve of first compound, second compound 0.3 µM.

Each structure is given as a SMILES string. Values joined by “and” are separate entries in the source; they are usually repeats but may differ in a detail not shown here. Identical values can stand only once.

Usually IC50 stands for the concentration that gives 50% inhibition. The viability, T/C is the ratio of treated to control.
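Also: spheroids exposed to agents for seven days before readout.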

Consider `CC1(C)CCC(Nc2ncc(C(F)(F)F)c(-c3c[nH]c4c(P(C)(C)=O)c(C#N)ccc34)n2)CN1` (stereo not given) + CCn1c(-c2cccnc2C(C)OC)c2c3cc(ccc31)N1CCOC(CC(NC(=O)C(C(C)C)N(C)C(=O)C3(F)CCN(C(=O)C#CC(C)(C)N(C)C)CC3)C(=O)N3CCCC(N3)C(=O)OCC(C)(C)C2)C1, for which the IC50 runs as follows: under setting [1], less than 0.949 nM; under setting [2], less than 0.949 nM; under setting [3], less than 0.949 nM; under setting [4], less than 0.949 nM; under setting [5], less than 0.949 nM; under setting [6], less than 0.949 nM. Moreover, the viability, T/C runs as follows: (second compound 0.000949 µM, first compound 0.000949 µM) 46.4%; (second compound 0.000949 µM, first compound 0.003 µM) 48.8%; (second compound 0.000949 µM, first compound 0.00949 µM) 35.2%; (second compound 0.000949 µM, first compound 0.03 µM) 57.9%; (second compound 0.000949 µM, first compound 0.0949 µM) 54.9%; (second compound 0.000949 µM, first compound 0.3 µM) 41.8%. In addition, the viability, T/C reads like this: (second compound 0.003 µM, first compound 0.000949 µM) 15.9%; (second compound 0.003 µM, first compound 0.003 µM) 14.2%; (second compound 0.003 µM, first compound 0.00949 µM) 17.2%; (second compound 0.003 µM, first compound 0.03 µM) 19.4%; (second compound 0.003 µM, first compound 0.0949 µM) 22.6%; (second compound 0.003 µM, first compound 0.3 µM) 20.4%. Moreover, the viability, T/C (second compound 0.00949 µM, first compound 0.000949 µM) is 13.5%; the viability, T/C (second compound 0.00949 µM, first compound 0.003 µM) is 12.7%; the viability, T/C (second compound 0.00949 µM, first compound 0.00949 µM) is 16.5%; the viability, T/C (second compound 0.00949 µM, first compound 0.03 µM) was 20.3%; the viability, T/C (second compound 0.00949 µM, first compound 0.0949 µM) is 20.1%; the viability, T/C (second compound 0.00949 µM, first compound 0.3 µM) was 21.1%. In addition, the viability, T/C was 13.3% (second compound 0.03 µM, first compound 0.000949 µM); 16.3% (second compound 0.03 µM, first compound 0.003 µM); 17% (second compound 0.03 µM, first compound 0.00949 µM); 13.9% (second compound 0.03 µM, first compound 0.03 µM); 14.8% (second compound 0.03 µM, first compound 0.0949 µM); 21.1% (second compound 0.03 µM, first compound 0.3 µM). The viability, T/C (second compound 0.0949 µM, first compound 0.000949 µM) was 12.1%; the viability, T/C (second compound 0.0949 µM, first compound 0.003 µM) is 17.4%; the viability, T/C (second compound 0.0949 µM, first compound 0.00949 µM) is 17.6%; the viability, T/C (second compound 0.0949 µM, first compound 0.03 µM) was 19.6%; the viability, T/C (second compound 0.0949 µM, first compound 0.0949 µM) was 15.4%; the viability, T/C (second compound 0.0949 µM, first compound 0.3 µM) was 20.1%. In addition, the viability, T/C is 15.7% (second compound 0.3 µM, first compound 0.000949 µM); 15.3% (second compound 0.3 µM, first compound 0.003 µM); 16.7% (second compound 0.3 µM, first compound 0.00949 µM); 14.6% (second compound 0.3 µM, first compound 0.03 µM); 18.2% (second compound 0.3 µM, first compound 0.0949 µM); 20.9% (second compound 0.3 µM, first compound 0.3 µM).

Take `O=C(c1ccc(F)c(F)c1Nc1ccc(I)cc1F)N1CC(O)([C@@H]2CCCCN2)C1` + CCn1c(-c2cccnc2C(C)OC)c2c3cc(ccc31)N1CCOC(CC(NC(=O)C(C(C)C)N(C)C(=O)C3(F)CCN(C(=O)C#CC(C)(C)N(C)C)CC3)C(=O)N3CCCC(N3)C(=O)OCC(C)(C)C2)C1: the IC50 was less than 3.16 nM under setting [1]; less than 3.16 nM under setting [2]; less than 3.16 nM under setting [3]; less than 3.16 nM under setting [4]; less than 3.16 nM under setting [5]; less than 3.16 nM under setting [6]. Further, the viability, T/C is 33.7% (second compound 0.000949 µM, first compound 0.00316 µM); 29.1% (second compound 0.000949 µM, first compound 0.01 µM); 11.7% (second compound 0.000949 µM, first compound 0.0316 µM); 15.2% (second compound 0.000949 µM, first compound 0.1 µM); 6.3% (second compound 0.000949 µM, first compound 0.316 µM); 2.8% (second compound 0.000949 µM, first compound 1 µM). The viability, T/C reads like this: (second compound 0.003 µM, first compound 0.00316 µM) 11.8%; (second compound 0.003 µM, first compound 0.01 µM) 8.85%; (second compound 0.003 µM, first compound 0.0316 µM) 7.64%; (second compound 0.003 µM, first compound 0.1 µM) 7.02%; (second compound 0.003 µM, first compound 0.316 µM) 4.31%; (second compound 0.003 µM, first compound 1 µM) 2.26%. For the same compound, the viability, T/C was 11.9% (second compound 0.00949 µM, first compound 0.00316 µM); 9.16% (second compound 0.00949 µM, first compound 0.01 µM); 7.57% (second compound 0.00949 µM, first compound 0.0316 µM); 6.25% (second compound 0.00949 µM, first compound 0.1 µM); 3.49% (second compound 0.00949 µM, first compound 0.316 µM); 2.55% (second compound 0.00949 µM, first compound 1 µM). Also, the viability, T/C reads like this: (second compound 0.03 µM, first compound 0.00316 µM) 10.5%; (second compound 0.03 µM, first compound 0.01 µM) 8.81%; (second compound 0.03 µM, first compound 0.0316 µM) 12.8%; (second compound 0.03 µM, first compound 0.1 µM) 7.27%; (second compound 0.03 µM, first compound 0.316 µM) 2.71%; (second compound 0.03 µM, first compound 1 µM) 2.49%. In addition, the viability, T/C by setting is: (second compound 0.0949 µM, first compound 0.00316 µM) 11.1%; (second compound 0.0949 µM, first compound 0.01 µM) 9.53%; (second compound 0.0949 µM, first compound 0.0316 µM) 8.98%; (second compound 0.0949 µM, first compound 0.1 µM) 6.47%; (second compound 0.0949 µM, first compound 0.316 µM) 2.33%; (second compound 0.0949 µM, first compound 1 µM) 1.78%. In addition, the viability, T/C (second compound 0.3 µM, first compound 0.00316 µM) was 12.8%; the viability, T/C (second compound 0.3 µM, first compound 0.01 µM) was 11%; the viability, T/C (second compound 0.3 µM, first compound 0.0316 µM) was 8.71%; the viability, T/C (second compound 0.3 µM, first compound 0.1 µM) is 5.63%; the viability, T/C (second compound 0.3 µM, first compound 0.316 µM) is 2.69%; the viability, T/C (second compound 0.3 µM, first compound 1 µM) is 2.11%.

For `CC1(C)CCC(Nc2ncc(C(F)(F)F)c(-c3c[nH]c4c(P(C)(C)=O)c(C#N)ccc34)n2)CN1` (stereo not given), the viability, T/C reads like this: (compound 0.000949 µM) 110% and 123% (2×) and 109%; (compound 0.003 µM) 120% [middle of 4 runs]; (compound 0.00949 µM) 75.7% [middle of 4 runs]; (compound 0.03 µM) 58.1% [middle of 4 runs]; (compound 0.0949 µM) 60.8% [middle of 4 runs]; (compound 0.3 µM) 60.1% [middle of 4 runs]. Moreover, the half-maximal inhibitory concentration (IC50) (curve of compound) is greater than 300 nM.

`CCc1c2c(nc3ccc(O)cc13)-c1cc3c(c(=O)n1C2)COC(=O)[C@]3(O)CC`: the viability, T/C by setting is: (compound 0.000949 µM) 102% (2×) and 97.3% and 88.2%; (compound 0.003 µM) 38.8% [middle of 4 runs]; (compound 0.00949 µM) 23.2% [middle of 4 runs]; (compound 0.03 µM) 17.6% [middle of 4 runs]; (compound 0.0949 µM) 13.3% [middle of 4 runs]; (compound 0.3 µM) 5.27% [middle of 4 runs]. Further, the IC50 (curve of compound) was 2.52 nM [middle of 4 runs].

On to `CCn1c(-c2cccnc2C(C)OC)c2c3cc(ccc31)N1CCOC(CC(NC(=O)C(C(C)C)N(C)C(=O)C3(F)CCN(C(=O)C#CC(C)(C)N(C)C)CC3)C(=O)N3CCCC(N3)C(=O)OCC(C)(C)C2)C1` (stereo not given), for which the viability, T/C by setting is: (compound 0.000949 µM) 41.9% [middle of 8 runs]; (compound 0.003 µM) 13.8% [middle of 8 runs]; (compound 0.00949 µM) 11.6% [middle of 7 runs]; (compound 0.03 µM) 12.7% [middle of 8 runs]; (compound 0.0949 µM) 14.9% [middle of 8 runs]; (compound 0.3 µM) 14% [middle of 8 runs]. The IC50 (compound alone, run of 07/09/2024) was less than 0.949 nM.
